These results are taken from patent US10774085B2, “Method of treatment using substituted pyrazolo[1,5-A] pyrimidine compounds” (Array BioPharma Inc., priority 2008, dated 2020).

This assay addresses histidine-tagged recombinant human TrkA, cytoplasmic domain (Homo sapiens (Human), UniProt P04629). Put plainly: TrkA ELISA Assay. It is filed as biochemical. As to conditions: 2.5 nM TrkA, 500 μM ATP; read-out: TrkA Elisa Enzyme IC50. As to the method: An enzyme-linked immunosorbant assay (ELISA) was used to assess TrkA kinase activity in the presence of inhibitors. Immulon 4HBX 384-well microtiter plates (Thermo part #8755) were coated with a 0.025 mg/mL solution of poly (Glu, Ala, Tyr; 6:3:1; Sigma P3899). Various concentrations of test compound, 2.5 nM TrkA (Invitrogen Corp., histidine-tagged recombinant human TrkA, cytoplasmic domain), and 500 μM ATP were incubated for 25 minutes at ambient temperature in the coated plates while shaking. The assay buffer consisted of 25 mM MOPS pH 7.5, 0.005% (v/v) Triton X-100 and 5 mM MgCl2. The reaction mixture was removed from the plate by washing with PBS containing 0.1% (v/v) Tween 20. The phosphorylated reaction product was detected using 0.2 μg/mL of a phosphotyrosine specific monoclonal antibody (clone PY20) conjugated to horseradish peroxidase in conjunction with the TMB Peroxidase Substrate System (KPL). After the addition of 1M phosphoric acid, the chromogenic substrate color intensity was quantitated via absorbance at 450 nm. IC50 values were calculated using either a 4 or 5-parameter logistic curve fit.
In general terms: In an ELISA, binding on a coated surface is turned into a signal by an enzyme label.

Each structure is given as a SMILES string. pIC50: −log10 of the molar value.

Sequence of histidine-tagged recombinant human TrkA, cytoplasmic domain (P04629 440-796): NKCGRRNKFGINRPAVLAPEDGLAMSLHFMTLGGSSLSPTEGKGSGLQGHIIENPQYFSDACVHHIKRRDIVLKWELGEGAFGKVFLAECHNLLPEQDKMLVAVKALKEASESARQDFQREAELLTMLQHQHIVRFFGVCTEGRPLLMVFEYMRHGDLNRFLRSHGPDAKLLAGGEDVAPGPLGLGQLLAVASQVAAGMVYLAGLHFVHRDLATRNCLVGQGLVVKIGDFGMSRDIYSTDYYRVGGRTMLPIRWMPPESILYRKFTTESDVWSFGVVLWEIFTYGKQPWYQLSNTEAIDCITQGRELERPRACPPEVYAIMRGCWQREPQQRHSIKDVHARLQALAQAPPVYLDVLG

Turning to `COc1ccc(F)cc1[C@H]1CCCN1c1ccn2ncc(NC(=O)N3CCC[C@H](O)C3)c2n1` [Example 91, (S)—N-(5-((R)-2-(5-fluoro-2-methoxyphenyl)pyrrolidin-1-yl)pyrazolo[1,5-a]pyrimidin-3-yl)-3-hydroxypiperidine-1-carboxamide], the negative logarithm of the IC50 (pIC50) was 7.99.

The pIC50 is −log10 of the IC50, conventionally taken in molar units.
